From patent publication US20100222410A1, “Nuclease compositions and methods” (Massachusetts Institute of Technology, priority 2008, published 2010)

What was measured:
YbeY = target: T1, YbeY (Escherichia coli, UniProt P0A898); assay: Inhibition of YbeY RNase activity in the in vitro cleavage assay (total rRNA substrate); format: biochemical, E. coli
T1 construct: His (N, cleaved yes); MBP (N, cleaved yes); made in house; host or cells: E. coli, pET28A vector, IPTG induction
Method: (§1) In vitro cleavage assays. All YbeY RNase assays were carried out in 50 mM HEPES pH 7.5 in a 20 μl final volume and used 0.2 μg of purified YbeY or 8.0 μg of MBP-YbeY. For assays using total rRNA or folA mRNA as substrate, 800 ng of total E. coli rRNA or synthesized folA mRNA was incubated with YbeY or MBP-YbeY for 30′ at 37° C., separated on an agarose/synergel mix gel and stained with ethidium bromide. Where indicated EDTA was added to 50 mM and MgSO4 was added to 5 mM. For assays using ΔybeY mutant 70S ribosomes as substrate, 800 ng of ΔybeY mutant 70S ribosomes was incubated with YbeY for the indicated time at 37° C., separated on an agarose/synergel mix gel and stained with ethidium bromide. For each reaction, 200 pmol of short RNA substrate was incubated with YbeY or MBP-YbeY for the indicated time at 37° C. Products were separated on denaturing PAGE. The ladder used for each substrate was made by alkaline hydrolysis of the respective substrate. A synthesized short rRNA of defined length was used as a reference for numerating the ladder.

E. coli = assay: 17S rRNA accumulation after treatment of E. coli (total rRNA analysis); format: cell-based
Method: Polysome and rRNA analysis. Polysome profiles were obtained as described previously. rRNA was extracted from logarithmically growing cultures or separated ribosome fractions using Qiagen RNeasy Mini Kit. 16S and 23 rRNA were separated using Synergel/Agarose gel electrophoresis as described previously. […] The site-specific RNase H cleavage assay was performed as described previously followed by Northern hybridization using primers specific for the mature 3′termini of 16S, 23S, and 5S, respectively. 100 ng of total MC4100 or mutant RNA were used for each assay. All reactions were separated on denaturing polyacrylamide gels.

[1] = system: purified 70S ribosomes isolated from the ΔybeY mutant; assay: In vitro cleavage assay, 70S ribosomes as substrate; format: biochemical, E. coli; details: over time, absence of Mg^2+
Method: as §1

[2] = system: 16S rRNA 3′ terminus mimic; assay: YbeY activity on 16S rRNA 3′ terminus mimics; format: biochemical, E. coli
Method: as §1

folA mRNA = assay: In vitro cleavage assay, defined mRNA as substrate; format: biochemical
Method: as §1

[3] = system: double stranded or single stranded DNA; assay: YbeY activity on DNA; format: biochemical; details: in vitro
total E. coli rRNA = assay: In vitro cleavage assay, total rRNA as substrate; format: biochemical; details: MBP-YbeY at four times the molar concentration of YbeY
Method: as §1

[4] = system: short, sequence-defined, RNA substrates; assay: In vitro cleavage assay, short sequence-defined RNA substrates; format: biochemical; details: for position of major cleavage product from the beginning of the duplex: partially dsRNA substrate with ssRNA 3′ terminus
Method: as §1

[5] = partially duplexed RNA substrate with 5′ ssRNA terminus, FIG. 3G

T1 sequence (P0A898 whole entry): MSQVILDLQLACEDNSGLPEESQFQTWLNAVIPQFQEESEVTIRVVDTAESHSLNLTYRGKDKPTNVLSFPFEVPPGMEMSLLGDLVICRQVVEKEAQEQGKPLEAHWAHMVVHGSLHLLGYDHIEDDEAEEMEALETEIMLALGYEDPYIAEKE

`O=C(O)CN(CCN(CC(=O)O)CC(=O)O)CC(=O)O` [EDTA, ethylenediaminetetraacetic acid] was tested, and the “degradation of total rRNA by YbeY in presence of EDTA” value (YbeY; EDTA added to 50 mM, 30′ at 37° C.) was “inhibited”.

In the case of `[Mg+2]` [Mg^+2, magnesium(II)], the “Mg^+2 concentration that inhibits YbeY's RNase activity” value (YbeY; in vitro, MgSO4 added) is reported as no less than 5 mM.

`CC1(C)S[C@@H]2[C@H](NC(=O)[C@H](N)c3ccccc3)C(=O)N2[C@H]1C(=O)O` [ampicillan] was tested, and the “accumulation of 17S rRNA” value (E. coli) was “does not cause the accumulation of 17S”.

In the case of `O=C(N[C@H](CO)[C@H](O)c1ccc([N+](=O)[O-])cc1)C(Cl)Cl` [chloramphenicol], the “accumulation of 17S rRNA” value (E. coli) is reported as “induce the rapid accumulation of 17S rRNA”.

With `OO` [hydrogen peroxide] the “accumulation of 17S rRNA” value (E. coli) was “does not cause the accumulation of 17S”.

`CN[C@@H]1[C@H](O)[C@H](NC)[C@H]2O[C@@]3(O)C(=O)C[C@@H](C)O[C@H]3O[C@@H]2[C@H]1O` [spectinomycin] was tested, and the “accumulation of 17S rRNA” value (E. coli) was “induce the rapid accumulation of 17S rRNA”.

With “YbeY: E. coli UPF0054 family member, purified as MBP fusion, MBP removed by TEV protease cleavage; C-terminal FLAG tag” the “degradation of 70S ribosomes” value [1] was “effectively degraded”, the “cleavage of 50 nucleotide ssRNA 16S rRNA 3′ terminus mimic” value ([2]; mimic alone, 4 μg of YbeY) was “cleaved this substrate to generate a mature 3′ terminus” and the “cleavage at the maturation site” value ([2]; mimic paired with a short mRNA, flap like structure) was “enhance YbeY cleavage at the maturation site”. The “degradation of a defined mRNA” value (folA mRNA) was “can also degrade”, the “degradation of double stranded or single stranded DNA” value [3] was “did not degrade” and the “RNase activity against total E. coli rRNA” value (total E. coli rRNA) was “can degrade total E. coli rRNA”. The “cleavage of single-stranded RNA (ssRNA) substrate, short sequence of 16S rRNA” value ([4]; FIG. 3C) was “cleaved”, the “cleavage of a perfect RNA duplex” value ([4]; FIG. 3D) was “unable to cleave” and the “cleavage of hairpin substrate within the loop” value ([4]; hairpin with perfectly paired blunt terminus, FIG. 3H) was “efficiently cleaved”. The “position of major cleavage product from the beginning of the duplex” value ([4]; FIG. 3E) was “+1 bases”, the “position of major cleavage product from the beginning of the duplex” value ([4]; FIG. 3F) was “+2 bases” and the “cleavage inside the duplex” value [4, 5] was “no cleavage events were observed”. The “position of major cleavage product from the duplexed end” value [4, 5] was “+2 bases” and the “position of the major YbeY cut” value ([4]; third partially dsRNA substrate with free 3′ ssRNA terminus, different nucleotide sequence) was “flush with the dsRNA end”.

In the case of gentamycin, the “accumulation of 17S rRNA” value (E. coli) is reported as “induce the rapid accumulation of 17S rRNA”.
